{
  "source": "patent US20170348337A1",
  "about": "“MULTIFUNCTIONAL MEMBRANE-ACTIVE AMINOGLYCOSIDE-PEPTIDE CONJUGATES” (priority 2014, published 2017)",
  "key": {"[1]": {"assay": "synchrotron small angle X-ray scattering (SAXS) of model membranes", "conditions": "DOPE/DOPS=80/20; Pentobra to lipid 1/80; tobramycin to lipid 1/20 or 1/40", "experimental": "Briefly, DOPE and DOPS lyophilized lipids from Avanti Polar lipids were used without further purification. SUVs were prepared by sonication. Stock solutions of DOPE and DOPS were prepared in chloroform at ˜20 mg/g. Mixtures of these lipids were prepared at molar ratios, so DOPE/DOPS=80/20 corresponded to a 4:1 lipid ratio. Chloroform was evaporated under N2, and the mixtures were dried further by overnight desiccation under vacuum. The dried lipids were resuspended the next day in 100 mM NaCl. Solutions were incubated at 37° C. for 18 h and then sonicated until clear. SUVs were obtained by extrusion (0.2 μm pore Nucleopore filter).\nPentobra and tobramycin stock solutions were prepared by dissolving the molecules in 100 mM NaCl. Lipids were thoroughly mixed with Pentobra/tobramycin at specific molecule to lipid ratios (P/L) in 100 mM NaCl. Sample solutions were hermetically sealed in quartz-glass capillaries (Hilgenberg GmbH, Mark-tubes, code no: 4017515). Synchrotron SAXS experiments were conducted at the Stanford Synchrotron Radiation Laboratory (BL 4-2). Monochromatic X-rays with 9 keV energy were used. Scattering was collected using a Rayonix MX225-HE detector (pixel size 73.2 μm). Samples were also measured at the California NanoSystems Institute (CNSI) at UCLA. […] Identical samples were prepared and measured at different times and multiple sources to ensure consistency between samples. […]"}, "E. coli ML35": {"tested_on": "E. coli ML35", "assay": "E. coli ML35 cell permeabilization assay (ONPG→ONP conversion)", "format": "cell-based", "conditions": "90 min, 37° C.", "experimental": "E. coli ML35 [lacZ-(Con) ΔlacY] cannot take up the lactose mimic ONPG unless cell membrane integrity is compromised. Upon membrane permeabilization ONPG can diffuse into the bacterial cell cytoplasm where it is hydrolyzed by β-galactosidase into galactose and ONP. Since ONP absorbs at 400 nm, the permeabilization kinetics of membrane-disrupting agents can be monitored by OD400 absorbance measurement. Methodology here was very similar to previous studies. Log-phase E. coli cells were grown as described above, washed and resuspended in 10 mM Tris supplemented with 0.01 volume (1% vol/vol) TSB at pH 7.4 (Tris-TSB). In triplicate, bacteria (5×10^6 cells/well) were exposed to various concentrations of antibiotic (Pentobra, tobramycin, Pen peptide) in the presence of 2.5 mM ONPG for 90 min at 37° C. The kinetics of ONPG hydrolysis were measured by determining the absorbance at 400 nm using a plate reader spectrophotometer.\nTo characterize the membrane activity of Pentobra on bacteria, its permeabilization kinetics were monitored on live cells by conducting an enzymatic assay for the conversion of ortho-nitrophenyl β-D-galactopyranoside (ONPG) to ortho-nitrophenol (ONP) on the E. coli strain ML35. E. coli ML35 [lacZ-(Con) ΔlacY] constitutively expresses β-galactosidase (β-gal) but lacks the lactose permease necessary for uptake of the lactose analogue ONPG. […]"}, "[2]": {"tested_on": "MCP-1, MDC, IP-10 and IL-12p40 in human monocytes", "assay": "chemokine/cytokine gene expression in P. acnes-stimulated monocytes (real-time PCR)", "format": "cell-based", "conditions": "24 hrs co-treatment", "experimental": "Peripheral blood mononuclear cells (PBMCs) were isolated from whole blood of normal healthy donors as approved by the Institutional Review Board at UCLA using Ficoll-Paque gradients (GE Healthcare, Piscataway, N.J.) and plated onto six-well tissue culture plates (20×10^6-30×10^6 per well) for 2 hours in RPMI 1640 medium (Invitrogen Life Technologies, Carlsbad, Calif.) supplemented with 1% fetal calf serum (Omega Scientific, Tarzana, Calif.). Nonadherent cells were removed by rigorously washing three times with RPMI. Adherent monocytes were stimulated (co-treated) with media or P. acnes in the presence of tobramycin or Pentobra in 10% fetal calf serum. P. acnes was used at an MOI of 0.5 and cells were cultured for 24 hours at 37° C.\nMonocytes were stimulated with media or P. acnes in the presence of tobramycin or Pentobra. Total RNA was isolated using Trizol reagent (Invitrogen, Carlsbad, Calif.) following manufacturer's protocol and treated with RNase-free DNase. RNA concentration and quality were determined by spectrophotometry. RNA samples were reverse-transcribed to cDNA using iScript cDNA synthesis kit (Bio-Rad, Hercules, Calif.). Reactions were done at 25° C. for 5 minutes, 42° C. for 30 minutes and 85° C. for 5 minutes. Real-time PCR was applied using iQ SYBR Green supermix (Bio-Rad). Forty cycles were carried out at 95° C. for 5 minutes, then 95° C. for 10 seconds, 55° C. for 20 seconds, 72° C. for 20 seconds. GAPDH was used as a control. Gene expression level was quantified by the comparative method 2-ΔΔCT.\nMonocytes were cultured and evaluated for cytokine and chemokine expression by ELISA and real time PCR after 24 hrs."}, "[3]": {"tested_on": "Vancomycin-Sensitive Enterococci (VSE)", "assay": "organism not typed", "format": "cell-based", "conditions": "read-out: MIC", "source_text": "Pentobra was screened against a broad panel of microbial pathogens, including strains of E. coli, MRSA, Klebsiella (Kleb), Acinetobacter (AcB), Vancomycin-Sensitive Enterococci (VSE) and Vancomycin-Resistant Enterococci (VRE), and specifically including E. faecalis samples. […] The experimenter reported the minimum inhibitory concentration (MIC) in mass units per unit volume (μg/mL) for each compound, and MIC data were converted into molar concentrations (μM) due to the large difference between the molecular weight of tobramycin (467.5 g/mol) and Pentobra (2277 g/mol)."}},
  "note": "“Also recorded” adds a separate entry of the source. Read-outs that look alike come from different tables or passages of the source.",
  "data": [
    {"smiles": "NC[C@H]1O[C@H](O[C@H]2[C@H](O)[C@@H](O[C@H]3O[C@H](CO)[C@@H](O)[C@H](N)[C@H]3O)[C@H](N)C[C@@H]2N)[C@H](N)C[C@@H]1O", "note": "[tobramycin]", "values": [
      {"measurement": "induced membrane curvature / phase (negative Gaussian curvature, NGC)", "setting": "[1]", "result": "induced NGC was not observed; also recorded: did not induce NGC or negative mean curvature"},
      {"measurement": "inner membrane permeabilization (400 nm absorbance, ONPG→ONP)", "setting": "E. coli ML35", "result": "no membrane permeabilization occurred; also recorded: comparable to background"},
      {"measurement": "inhibition of IL-12p40 gene expression", "setting": "[2]", "result": "little to no inhibition"},
      {"measurement": "inhibition of MCP-1 expression, comparison of the antibiotics", "setting": "[2]", "result": "more effective"},
      {"measurement": "P. acnes-induced IP-10 expression", "setting": "[2]; p<0.001", "result": "completely abrogated"},
      {"measurement": "MIC", "setting": "[3]; isolate S4895552, VSE, LZD-R", "result": "> 274", "unit": "µM"},
      {"measurement": "MIC", "setting": "[3]; isolate W7171143,VSE", "result": 68, "unit": "µM"},
      {"measurement": "MIC", "setting": "[3]; isolate W7214342,VSE", "result": "> 274", "unit": "µM"},
      {"measurement": "MIC", "setting": "[3]; isolate X4540299, VSE", "result": 34, "unit": "µM"}
    ]}
  ]
}
